From ChEMBL document CHEMBL3102853, “Carbonic anhydrase inhibitors. Synthesis, and molecular structure of novel series N-substituted N'-(2-arylmethylthio-4-chloro-5-methylbenzenesulfonyl)guanidines and their inhibition of human cytosolic isozymes I and II and the transmembrane tumor-associated isozymes IX and XII” (Eur J Med Chem, 2014)

Legend:
Format in all cases: functional
MDA-MB-468 [1] = assay: Cytotoxicity against human MDA-MB-468 cells
IGROV-1 = assay: Cytotoxicity against human IGROV1 cells
T47D [2] = assay: Cytotoxicity against human T47D cells
BT-549 = assay: Cytotoxicity against human BT549 cells
[3] = Cytotoxicity against human Hs 578T cells
MCF7 [4] = assay: Cytotoxicity against human MCF7 cells
MDA-MB-231 = assay: Cytotoxicity against human MDA-MB-231 cells
PC-3 [5] = assay: Cytotoxicity against human PC3 cells
A498 [6] = assay: Cytotoxicity against human A498 cells
OVCAR-8 = assay: Cytotoxicity against human OVCAR8 cells
OVCAR-3 [7] = assay: Cytotoxicity against human OVCAR3 cells
[8] = Cytotoxicity against human OVCAR4 cells
UACC-62 [9] = assay: Cytotoxicity against human UACC62 cells
[10] = Cytotoxicity against human UACC257 cells
SK-MEL-2 [11] = assay: Cytotoxicity against human SK-MEL-2 cells
SK-MEL-28 = assay: Cytotoxicity against human SK-MEL-28 cells
MDA-MB-435 = assay: Cytotoxicity against human MDA-MB-435 cells
M14 = assay: Cytotoxicity against human M14 cells
Malme-3M = assay: Cytotoxicity against human MALME-3M cells
LOX IMVI [12] = assay: Cytotoxicity against human LOXIMVI cells
SNB-19 = assay: Cytotoxicity against human SNB19 cells
SNB-75 [13] = assay: Cytotoxicity against human SNB75 cells
SF-268 [14] = assay: Cytotoxicity against human SF268 cells
KM12 [15] = assay: Cytotoxicity against human KM12 cells
SF-539 = assay: Cytotoxicity against human SF539 cells
HCT-116 = assay: Cytotoxicity against human HCT116 cells
HCC 2998 = assay: Cytotoxicity against human HCC2998 cells
NCI-H522 = assay: Cytotoxicity against human NCI-H522 cells
COLO 205 = assay: Cytotoxicity against human COLO205 cells
NCI-H460 [16] = assay: Cytotoxicity against human NCI-H460 cells
HOP-92 [17] = assay: Cytotoxicity against human HOP92 cells
RPMI-8226 [18] = assay: Cytotoxicity against human RPMI8226 cells
SR [19] = assay: Cytotoxicity against human SR cells
MOLT-4 [20] = assay: Cytotoxicity against human MOLT4 cells
K562 = assay: Cytotoxicity against human K562 cells
CCRF-CEM = assay: Cytotoxicity against human CCRF-CEM cells
HL-60(TB) [21] = assay: Cytotoxicity against human HL-60(TB) cells
[22] = Cytotoxicity against human Hs 578T cells at 10 uM; details: read-out: GI
MDA-MB-468 [23] = assay: Cytotoxicity against human MDA-MB-468 cells at 10 uM; details: read-out: GI
MCF7 [24] = assay: Cytotoxicity against human MCF7 cells at 10 uM; details: read-out: GI
T47D [25] = assay: Cytotoxicity against human T47D cells at 10 uM; details: read-out: GI
DU-145 = assay: Cytotoxicity against human DU145 cells at 10 uM; details: read-out: GI
PC-3 [26] = assay: Cytotoxicity against human PC3 cells at 10 uM; details: read-out: GI
A498 [27] = assay: Cytotoxicity against human A498 cells at 10 uM; details: read-out: GI
[28] = Cytotoxicity against human NCI-ADR-RES cells at 10 uM; details: read-out: GI
LOX IMVI [29] = assay: Cytotoxicity against human LOXIMVI cells at 10 uM; details: read-out: GI
OVCAR-3 [30] = assay: Cytotoxicity against human OVCAR3 cells at 10 uM; details: read-out: GI
UACC-62 [31] = assay: Cytotoxicity against human UACC62 cells at 10 uM; details: read-out: GI
SK-MEL-2 [32] = assay: Cytotoxicity against human SK-MEL-2 cells at 10 uM; details: read-out: GI
SF-268 [33] = assay: Cytotoxicity against human SF268 cells at 10 uM; details: read-out: GI
SW-620 = assay: Cytotoxicity against human SW620 cells at 10 uM; details: read-out: GI
SNB-75 [34] = assay: Cytotoxicity against human SNB75 cells at 10 uM; details: read-out: GI
KM12 [35] = assay: Cytotoxicity against human KM12 cells at 10 uM; details: read-out: GI
HT-29 = assay: Cytotoxicity against human HT-29 cells at 10 uM; details: read-out: GI
HOP-92 [36] = assay: Cytotoxicity against human HOP92 cells at 10 uM; details: read-out: GI
NCI-H460 [37] = assay: Cytotoxicity against human NCI-H460 cells at 10 uM; details: read-out: GI
A549 = assay: Cytotoxicity against human A549 cells at 10 uM; details: read-out: GI
SR [38] = assay: Cytotoxicity against human SR cells at 10 uM; details: read-out: GI
MOLT-4 [39] = assay: Cytotoxicity against human MOLT4 cells at 10 uM; details: read-out: GI
RPMI-8226 [40] = assay: Cytotoxicity against human RPMI8226 cells at 10 uM; details: read-out: GI
HL-60(TB) [41] = assay: Cytotoxicity against human HL-60(TB) cells at 10 uM; details: read-out: GI
[42] = read-out: LC50 (the source's name)

Cc1cc(S(=O)(=O)NC(=N)NCc2ccc(S(N)(=O)=O)cc2)c(SCc2ccc(C(F)(F)F)cc2)cc1Cl
GI50 (MDA-MB-468 [1]): 2.9 µM
TGI (MDA-MB-468 [1]): 13.8 µM
CC50 (MDA-MB-468 [1]; [42]): 66.4 µM
GI50 (IGROV-1): 4.9 µM
TGI (IGROV-1): 17.7 µM
CC50 (IGROV-1; [42]): 64.8 µM
GI50 (T47D [2]): 4.7 µM
TGI (T47D [2]): 20.7 µM
CC50 (T47D [2]; [42]): 84.4 µM
GI50 (BT-549): 4.4 µM
TGI (BT-549): 12.9 µM
CC50 (BT-549; [42]): 46.9 µM
GI50 [3]: 4.6 µM
TGI [3]: 24.1 µM
CC50 [3, 42]: > 100 µM
GI50 (MCF7 [4]): 3.3 µM
TGI (MCF7 [4]): 13.6 µM
CC50 (MCF7 [4]; [42]): 67.1 µM
GI50 (MDA-MB-231): 3.1 µM
TGI (MDA-MB-231): 8.9 µM
CC50 (MDA-MB-231; [42]): 34.5 µM
GI50 (PC-3 [5]): 3.3 µM
TGI (PC-3 [5]): 12.8 µM
CC50 (PC-3 [5]; [42]): 43.2 µM
GI50 (A498 [6]): 3.1 µM
TGI (A498 [6]): 17.3 µM
CC50 (A498 [6]; [42]): 46.5 µM
GI50 (OVCAR-8): 5 µM
TGI (OVCAR-8): 21 µM
CC50 (OVCAR-8; [42]): 70.2 µM
GI50 (OVCAR-3 [7]): 4.3 µM
TGI (OVCAR-3 [7]): 15.4 µM
CC50 (OVCAR-3 [7]; [42]): 41 µM
GI50 ([8]; OVCAR-4): 4.2 µM
TGI ([8]; OVCAR-4): 20.3 µM
CC50 ([8]; OVCAR-4, read-out: LC50 (the source's name)): 75.9 µM
GI50 (UACC-62 [9]): 2.6 µM
TGI (UACC-62 [9]): 9.1 µM
CC50 (UACC-62 [9]; [42]): 32 µM
GI50 ([10]; UACC-257): 3.7 µM
TGI ([10]; UACC-257): 14.7 µM
CC50 ([10]; UACC-257, read-out: LC50 (the source's name)): 39.4 µM
GI50 (SK-MEL-2 [11]): 2.5 µM
TGI (SK-MEL-2 [11]): 6.2 µM
CC50 (SK-MEL-2 [11]; [42]): 22.2 µM
GI50 (SK-MEL-28): 3.6 µM
TGI (SK-MEL-28): 14 µM
CC50 (SK-MEL-28; [42]): 44.3 µM
GI50 (MDA-MB-435): 3.8 µM
TGI (MDA-MB-435): 12.5 µM
CC50 (MDA-MB-435; [42]): 41.9 µM
GI50 (M14): 4.5 µM
TGI (M14): 16.8 µM
CC50 (M14; [42]): 49.6 µM
GI50 (Malme-3M): 3.8 µM
TGI (Malme-3M): 16.3 µM
CC50 (Malme-3M; [42]): 49.5 µM
GI50 (LOX IMVI [12]): 6.1 µM
TGI (LOX IMVI [12]): 20.5 µM
CC50 (LOX IMVI [12]; [42]): 54.3 µM
GI50 (SNB-19): 5 µM
TGI (SNB-19): 19.3 µM
CC50 (SNB-19; [42]): 54.4 µM
GI50 (SNB-75 [13]): 3 µM
TGI (SNB-75 [13]): 15.9 µM
CC50 (SNB-75 [13]; [42]): 56.4 µM
GI50 (SF-268 [14]): 4.8 µM
TGI (SF-268 [14]): 18.5 µM
CC50 (SF-268 [14]; [42]): 55.8 µM
GI50 (KM12 [15]): 3.1 µM
TGI (KM12 [15]): 10.1 µM
CC50 (KM12 [15]; [42]): 41.7 µM
GI50 (SF-539): 5.2 µM
TGI (SF-539): 17.9 µM
CC50 (SF-539; [42]): 44.8 µM
GI50 (HCT-116): 4.1 µM
TGI (HCT-116): 15.9 µM
CC50 (HCT-116; [42]): 46.6 µM
GI50 (HCC 2998): 3.1 µM
TGI (HCC 2998): 10.4 µM
CC50 (HCC 2998; [42]): 41.7 µM
GI50 (NCI-H522): 4.6 µM
TGI (NCI-H522): 16.8 µM
CC50 (NCI-H522; [42]): 42.3 µM
GI50 (COLO 205): 3.5 µM
TGI (COLO 205): 11.4 µM
CC50 (COLO 205; [42]): 58.1 µM
GI50 (NCI-H460 [16]): 3.8 µM
TGI (NCI-H460 [16]): 15.7 µM
CC50 (NCI-H460 [16]; [42]): 63.9 µM
GI50 (HOP-92 [17]): 2.9 µM
TGI (HOP-92 [17]): 8.3 µM
CC50 (HOP-92 [17]; [42]): 32.4 µM
GI50 (RPMI-8226 [18]): 2.8 µM
TGI (RPMI-8226 [18]): 9.1 µM
CC50 (RPMI-8226 [18]; [42]): 98.6 µM
GI50 (SR [19]): 2.4 µM
TGI (SR [19]): 6.8 µM
CC50 (SR [19]; [42]): > 100 µM
GI50 (MOLT-4 [20]): 3 µM
TGI (MOLT-4 [20]): 10.5 µM
CC50 (MOLT-4 [20]; [42]): > 100 µM
GI50 (K562): 3.7 µM
TGI (K562): 25.3 µM
CC50 (K562; [42]): > 100 µM
GI50 (CCRF-CEM): 3.5 µM
TGI (CCRF-CEM): 13.4 µM
CC50 (CCRF-CEM; [42]): 85.3 µM
GI50 (HL-60(TB) [21]): 2.4 µM
TGI (HL-60(TB) [21]): 6.4 µM
CC50 (HL-60(TB) [21]; [42]): 54.4 µM
inhibition of growth at 10 µM [22]: 68%
inhibition of growth at 10 µM (MDA-MB-468 [23]): 37%
inhibition of growth at 10 µM (MCF7 [24]): 47%
inhibition of growth at 10 µM (T47D [25]): 30%
inhibition of growth at 10 µM (DU-145): 57%
inhibition of growth at 10 µM (PC-3 [26]): 83%
inhibition of growth at 10 µM (A498 [27]): 63%
inhibition of growth at 10 µM [28]: 64%
inhibition of growth at 10 µM (LOX IMVI [29]): 67%
inhibition of growth at 10 µM (OVCAR-3 [30]): 1%
inhibition of growth at 10 µM (UACC-62 [31]): 59%
inhibition of growth at 10 µM (SK-MEL-2 [32]): 94%
inhibition of growth at 10 µM (SF-268 [33]): 69%
inhibition of growth at 10 µM (SW-620): 68%
inhibition of growth at 10 µM (SNB-75 [34]): 68%
inhibition of growth at 10 µM (KM12 [35]): 89%
inhibition of growth at 10 µM (HT-29): 79%
inhibition of growth at 10 µM (HOP-92 [36]): 89%
inhibition of growth at 10 µM (NCI-H460 [37]): 53%
inhibition of growth at 10 µM (A549): 60%
inhibition of growth at 10 µM (SR [38]): 17%
inhibition of growth at 10 µM (MOLT-4 [39]): 48%
inhibition of growth at 10 µM (RPMI-8226 [40]): 58%
inhibition of growth at 10 µM (HL-60(TB) [41]): 83%
